US11566007B2, “Ras inhibitors” (Revolution Medicines, Inc., priority 2019, dated 2023)

How the values were obtained:
[1] = system: NCI-H358 cells (K-Ras G12C); assay: Potency assay: pERK in NCI-H358 cells; format: cell-based, human; details: Homo sapiens, NCI-H358; H358 KRAS G12C; read-out: pERK EC50
Summary of the method: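 Inhibition of cellular pERK after a 4 h treatment, detected by AlphaLISA or In-Cell Western. IC50 from a four-parameter concentration-response fit.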

KRAS G12S = KRAS G12S (Homo sapiens (Human), UniProt P01116+P62937, G12S); assay: Ras-Raf (BRAF RBD) disruption / FRET / MOA assay, KRAS G12S; format: biochemical; details: Ras-Raf disruption/FRET/MOA assay; class symbols; read-out: KRAS G12S FRET data IC50
Summary of the method: (§1)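 Compounds, top final concentration 30 μM in 10-point 3-fold series, incubated 3 hours at 25° C with nucleotide-loaded Ras, cyclophilin A and BRAF RBD.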

KRAS G12D = KRAS G12D (Homo sapiens (Human), UniProt P01116+P62937, G12D); assay: Ras-Raf (BRAF RBD) disruption / FRET / MOA assay, KRAS G12D; format: biochemical; details: Ras-Raf disruption/FRET/MOA assay; class symbols; read-out: KRAS G12D FRET data IC50
Summary of the method: as §1

KRAS G13D = KRAS G13D (Homo sapiens (Human), UniProt P01116+P62937, G13D); assay: Ras-Raf (BRAF RBD) disruption / FRET / MOA assay, KRAS G13D; format: biochemical; details: read-out: IC50* KRAS G13D FRET data
Summary of the method: as §1

KRAS Q61H = KRAS Q61H (Homo sapiens (Human), UniProt P01116+P62937, Q61H); assay: Ras-Raf (BRAF RBD) disruption / FRET / MOA assay, KRAS Q61H; format: biochemical; details: Ras-Raf disruption/FRET/MOA assay; class symbols; read-out: KRAS Q61H FRET data IC50
Summary of the method: (§2)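 TR-FRET disruption of nucleotide-loaded Ras binding to BRAF RBD via compound-driven ternary complex with cyclophilin A. Compound as 10-point 3-fold series from 30 μM final, 3 h at 25° C, then anti-His Eu-W1024 (10 nM) and anti-GST allophycocyanin (50 nM) for 1.5 h. IC50 from decreased FRET ratio versus DMSO.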

NRAS Q61R = NRAS Q61R (Homo sapiens (Human), UniProt P01111+P62937, Q61R); assay: Ras-Raf (BRAF RBD) disruption / FRET / MOA assay, NRAS Q61R; format: biochemical; details: NRAS Q61R; Ras-Raf disruption/FRET/MOA assay; read-out: IC50* NRAS Q61R FRET data
Summary of the method: as §2

Sequence of KRAS G13D (P01116-2 other isoform, or with tags, fused parts or gaps G13D): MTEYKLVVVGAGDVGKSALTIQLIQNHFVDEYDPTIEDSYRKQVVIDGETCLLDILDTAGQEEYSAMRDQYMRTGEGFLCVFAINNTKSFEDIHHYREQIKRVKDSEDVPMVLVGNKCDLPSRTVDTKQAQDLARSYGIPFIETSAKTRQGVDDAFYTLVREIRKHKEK
Sequence of KRAS G13D (P62937 whole entry): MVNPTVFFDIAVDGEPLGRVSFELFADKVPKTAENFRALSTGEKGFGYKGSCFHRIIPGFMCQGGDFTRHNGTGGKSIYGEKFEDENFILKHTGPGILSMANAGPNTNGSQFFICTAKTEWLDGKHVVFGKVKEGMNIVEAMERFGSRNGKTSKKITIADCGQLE
Sequence of KRAS G12S (P01116-2 other isoform, or with tags, fused parts or gaps G12S): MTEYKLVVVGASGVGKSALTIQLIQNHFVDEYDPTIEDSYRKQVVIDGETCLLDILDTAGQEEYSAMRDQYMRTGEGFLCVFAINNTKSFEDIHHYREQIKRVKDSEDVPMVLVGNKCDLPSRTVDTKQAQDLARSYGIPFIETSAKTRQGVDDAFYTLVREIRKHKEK
Sequence of KRAS G12S (P62937 whole entry): as the sequence (P62937 whole entry) above
Sequence of KRAS G12D (P01116-2 other isoform, or with tags, fused parts or gaps G12D): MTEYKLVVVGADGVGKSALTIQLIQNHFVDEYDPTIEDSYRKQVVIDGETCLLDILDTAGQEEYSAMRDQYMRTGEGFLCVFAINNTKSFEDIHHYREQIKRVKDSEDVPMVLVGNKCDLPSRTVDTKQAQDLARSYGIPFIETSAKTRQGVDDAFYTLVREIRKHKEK
Sequence of KRAS G12D (P62937 whole entry): as the sequence (P62937 whole entry) above
Sequence of NRAS Q61R (P01111 whole entry Q61R): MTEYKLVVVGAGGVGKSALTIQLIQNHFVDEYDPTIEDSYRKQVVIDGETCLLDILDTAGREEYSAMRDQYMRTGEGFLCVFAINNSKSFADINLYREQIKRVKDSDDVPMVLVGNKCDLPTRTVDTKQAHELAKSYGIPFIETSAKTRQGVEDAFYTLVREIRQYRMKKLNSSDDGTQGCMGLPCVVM
Sequence of NRAS Q61R (P62937 whole entry): as the sequence (P62937 whole entry) above
Sequence of KRAS Q61H (P01116-2 other isoform, or with tags, fused parts or gaps Q61H): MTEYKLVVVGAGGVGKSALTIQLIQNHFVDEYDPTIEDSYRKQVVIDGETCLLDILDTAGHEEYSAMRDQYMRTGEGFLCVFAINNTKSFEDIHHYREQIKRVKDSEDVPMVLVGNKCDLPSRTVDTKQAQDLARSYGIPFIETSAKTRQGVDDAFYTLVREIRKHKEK
Sequence of KRAS Q61H (P62937 whole entry): as the sequence (P62937 whole entry) above

SMILES | EC50 [1] [µM] | IC50 (KRAS G12S) [µM] | IC50 (KRAS G12D) [µM] | IC50 (KRAS G13D) [µM] | IC50 (KRAS Q61H) [µM] | IC50 (NRAS Q61R) [µM]
C=CC(=O)N1C[C@@H]2CN(C(=O)N(C)[C@H](C(=O)N[C@H]3Cc4nc(cs4)-c4ccc5c(c4)c(c(-c4cccnc4[C@H](C)OC)n5CC)CC(C)(C)COC(=O)[C@@H]4CCCN(N4)C3=O)C(C)C)[C@@H]2C1 (atropisomer, axis not shown) [Example A561] | < 5 | 1 to 10 | 1 to 10 | 1 to 10 | 0.1 to 1 | 1 to 10
C=CC(=O)N1CCO[C@H]2CN(C(=O)N(C)[C@H](C(=O)N[C@H]3CC4=NN=C(O4)c4ccc5c(c4)c(c(-c4cccnc4[C@H](C)OC)n5CC(F)(F)F)CC(C)(C)COC(=O)[C@@H]4CCCN(N4)C3=O)C(C)C)C[C@H]21 (atropisomer, axis not shown) [Example A576] | < 5 | > 10 | > 10 | > 10 | 1 to 10 | > 10
CO[C@@H](C)c1ncccc1-c1c2c3cc(ccc3n1CC(F)(F)F)-c1nc(co1)C[C@H](NC(=O)[C@H](C(C)C)N(C)C(=O)C1(F)CCN(C(=O)C#CC(C)(C)N(C)C)CC1)C(=O)N1CCC[C@H](N1)C(=O)OCC(C)(C)C2 (atropisomer, axis not shown) [Example A578] | < 5 | 0.1 to 1 | 0.1 to 1 | 0.1 to 1 | 0.01 to 0.1 | 0.1 to 1
CCn1c(-c2cccnc2[C@H](C)OC)c2c3cc(ccc31)-c1cccc(c1)C[C@H](NC(=O)[C@@H](CO[C@H]1CCN(C(=O)C#CC(C)(C)N(C)C)C1)C(C)C)C(=O)N1CCC[C@H](N1)C(=O)OCC(C)(C)C2 (atropisomer, axis not shown) [Example A585] | < 5 | 1 to 10 | > 10 | > 10 | 1 to 10 | > 10
CCn1c(-c2cccnc2[C@H](C)OC)c2c3cc(ccc31)C1=CCCN(C1)C[C@H](NC(=O)[C@H](C(C)C)N(C)C(=O)C1(F)CCN(C(=O)C#CC(C)(C)N(C)C)CC1)C(=O)N1CCC[C@H](N1)C(=O)OCC(C)(C)C2 (atropisomer, axis not shown) [Example A591] | < 5 | 0.1 to 1 | 1 to 10 | 0.1 to 1 | 0.1 to 1 | 0.1 to 1
CCn1c(-c2cccnc2[C@H](C)OC)c2c3cc(ccc31)-c1cccc(c1)C[C@H](NC(=O)[C@@H](COC1CN(C(=O)C#CC(C)(C)N(C)C(C)C)C1)C(C)C)C(=O)N1CCC[C@H](N1)C(=O)OCC(C)(C)C2 (atropisomer, axis not shown) [Example A599] | < 5 | > 10 | > 10 | > 10 | > 10 | > 10
CO[C@@H](C)c1ncccc1-c1c2c3cc(ccc3n1CC(F)(F)F)-c1cccc(c1)CN(NC(=O)[C@@H](COC1CN(C(=O)C#CC(C)(C)N(C)C)C1)C(C)C)C(=O)N1CCC[C@H](N1)C(=O)OCC(C)(C)C2 (atropisomer, axis not shown) [Example A601] | < 5 | 1 to 10 | > 10 | 1 to 10 | 1 to 10 | 1 to 10
CO[C@@H](C)c1ncccc1-c1c2c3cc(ccc3n1CC(F)(F)F)-c1csc(n1)C[C@H](NC(=O)[C@H](C(C)C)N(C)C(=O)N1CCC3(CC1)CN(C(=O)/C=C/CF)C3)C(=O)N1CCC[C@H](N1)C(=O)OCC(C)(C)C2 (atropisomer, axis not shown) [Example A602] | < 5 | 0.01 to 0.1 | 0.1 to 1 | 0.1 to 1 | 0.01 to 0.1 | 0.01 to 0.1
C=CC(=O)N1CCOC2(CCN(C(=O)N(C)[C@H](C(=O)N[C@H]3Cc4nc(n(C)n4)-c4ccc5c(c4)c(c(-c4cccnc4[C@H](C)OC)n5CC(F)(F)F)CC(C)(C)COC(=O)[C@@H]4CCCN(N4)C3=O)C(C)C)CC2)C1 (atropisomer, axis not shown) [Example A606] | < 5 | 0.1 to 1 | 1 to 10 | 0.1 to 1 | 0.01 to 0.1 | 0.1 to 1
C=CC(=O)N1CC2(C1)OCCN2C(=O)N(C)[C@H](C(=O)N[C@H]1Cc2nc(cs2)-c2ccc3c(c2)c(c(-c2cccnc2[C@H](C)OC)n3CC)CC(C)(C)COC(=O)[C@@H]2CCCN(N2)C1=O)C(C)C (atropisomer, axis not shown) [Example A620] | < 5 | 0.1 to 1 | 1 to 10 | 0.1 to 1 | 0.01 to 0.1 | 0.1 to 1
CCn1c(-c2cccnc2[C@H](C)OC)c2c3cc(ccc31)-c1cccc(n1)C[C@H](NC(=O)[C@H](C(C)C)N(C)C(=O)N1CCC13CN(C(=O)C#CC(C)(C)N(C)C)C3)C(=O)N1CCC[C@H](N1)C(=O)OCC(C)(C)C2 (atropisomer, axis not shown) [Example A623] | < 5 | 1 to 10 | 1 to 10 | 1 to 10 | 0.1 to 1 | 1 to 10
CCn1c(-c2cccnc2[C@H](C)OC)c2c3cc(ccc31)-c1csc(n1)C[C@H](NC(=O)C[C@H](C)OC1CN(C(=O)C#CC(C)(C)N(C)C)C1)C(=O)N1CCC[C@H](N1)C(=O)OCC(C)(C)C2 (atropisomer, axis not shown) [Example A637] | < 5 | 1 to 10 | > 10 | 1 to 10 | 1 to 10 | > 10
CO[C@@H](C)c1ncccc1-c1c2c3cc(ccc3n1CC(F)(F)F)N1CCO[C@@H](C[C@H](NC(=O)[C@H](C(C)C)N3CC[C@]4(CCN(C(=O)C#CC(C)(C)N(C)C)C4)C3=O)C(=O)N3CCC[C@H](N3)C(=O)OCC(C)(C)C2)C1 (atropisomer, axis not shown) [Example A642] | < 5 | 1 to 10 | > 10 | 1 to 10 | 1 to 10 | > 10
CCn1c(-c2cccnc2[C@H](C)OC)c2c3cc(ccc31)N1CCO[C@@H](C[C@H](NC(=O)[C@H](C(C)C)N(C)C(=O)C3(F)CCN(C(=O)C#CC(C)(C)N(C)C)CC3)C(=O)N3CCC[C@H](N3)C(=O)OCC(C)(C)C2)C1 (atropisomer, axis not shown) [Example A647, 1-(4-(dimethylamino)-4-methylpent-2-ynoyl)-N-((2S)-1-(((2^2S,6^3S,4S)-1^1-ethyl-1^2-(2-((S)-1-methoxyethyl)pyridin-3-yl)-10,10-dimethyl-5,7-dioxo-6^1,6^2,6^3,6^4,6^5,6^6-hexahydro-1^1H-8-oxa-2(4,2)-morpholina-1(5,3)-indola-6(1,3)-pyridazinacycloundecaphane-4-yl)amino)-3-methyl-1-oxobutan-2-yl)-4-fluoro-N-methylpiperidine-4-carboxamide] | < 5 | 1 to 10 | 1 to 10 | 1 to 10 | 1 to 10 | 1 to 10
C=CC(=O)N1CC[C@]2(C1)OCN([C@H](C(=O)N[C@H]1Cc3cccc(n3)-c3ccc4c(c3)c(c(-c3cccnc3[C@H](C)OC)n4CC)CC(C)(C)COC(=O)[C@@H]3CCCN(N3)C1=O)C(C)C)C2=O (atropisomer, axis not shown) [Example A652] | < 5 | 1 to 10 | > 10 | 1 to 10 | 1 to 10 | 1 to 10
CCn1c(-c2cccnc2[C@H](C)OC)c2c3cc(ccc31)-c1cc(CF)cc(c1)C[C@H](NC(=O)[C@H](C(C)C)N(C)C(=O)[C@H]1CCN(C(=O)C#CC(C)(C)N(C)C)C1)C(=O)N1CCC[C@H](N1)C(=O)OCC(C)(C)C2 (atropisomer, axis not shown) [Example A658] | < 5 | 1 to 10 | 1 to 10 | 1 to 10 | 1 to 10 | 1 to 10
C=CC(=O)N1CC2(CCCN2C(=O)N(C)[C@H](C(=O)N[C@H]2Cc3nc(cs3)-c3ccc4c(c3)c(c(-c3cccnc3[C@H](C)OC)n4CC)CC(C)(C)COC(=O)[C@@H]3CCCN(N3)C2=O)C(C)C)C1 (atropisomer, axis not shown) [Example A667] | < 5 | 0.1 to 1 | 0.1 to 1 | 0.1 to 1 | 0.01 to 0.1 | 0.01 to 0.1
CCn1c(-c2cccnc2[C@H](C)OC)c2c3cc(ccc31)-c1cc(CF)cc(c1)C[C@H](NC(=O)[C@H](C(C)C)N1CC[C@]3(CCN(C(=O)C#CC(C)(C)N(C)C)C3)C1=O)C(=O)N1CCC[C@H](N1)C(=O)OCC(C)(C)C2 (atropisomer, axis not shown) [Example A673] | < 5 | 1 to 10 | 1 to 10 | 1 to 10 | 0.1 to 1 | 1 to 10
